Results from article PMC9610855, “Valorisation of the Inhibitory Potential of Fresh and Dried Fruit Extracts of Prunus spinosa L. towards Carbohydrate Hydrolysing Enzymes, Protein Glycation, Multiple Oxidants and Oxidative Stress-Induced Changes in Human Plasma Constituents” (Pharmaceuticals, 2022).
pIC50: −log10 of the molar value.

Columns and labels:
α-amylase = target: T1, α-amylase (Sus scrofa, UniProt P00690); experiment: α-amylase inhibition assay (EnzChek Ultra Amylase Assay Kit, fluorometric); assay type: biochemical; details: mean ± SD (n = 3)
T1 construct: pancreatin from porcine pancreas; purchased Sigma-Aldrich; host or cells: porcine pancreas extract (pancreatin)
T1 sequence (P00690 16-511): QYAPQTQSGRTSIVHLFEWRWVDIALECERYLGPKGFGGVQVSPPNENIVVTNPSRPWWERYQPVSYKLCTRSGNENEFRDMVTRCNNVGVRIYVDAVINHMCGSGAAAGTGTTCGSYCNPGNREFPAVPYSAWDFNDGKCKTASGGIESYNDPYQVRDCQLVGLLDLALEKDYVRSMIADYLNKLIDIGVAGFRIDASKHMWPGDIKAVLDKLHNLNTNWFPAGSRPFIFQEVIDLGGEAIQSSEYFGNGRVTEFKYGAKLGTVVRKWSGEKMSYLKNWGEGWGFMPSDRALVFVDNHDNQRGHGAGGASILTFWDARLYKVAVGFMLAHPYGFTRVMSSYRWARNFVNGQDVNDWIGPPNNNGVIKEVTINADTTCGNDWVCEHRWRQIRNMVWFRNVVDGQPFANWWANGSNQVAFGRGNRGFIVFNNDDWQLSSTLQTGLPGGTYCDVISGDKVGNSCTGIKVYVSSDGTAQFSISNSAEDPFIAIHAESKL
Method: The inhibitory activity of the analytes towards α-amylase was determined fluorometrically according to Truba et al. using an EnzChek™ Ultra Amylase Assay Kit. The test was based on measuring products formed after the enzymatically catalysed hydrolysis of the corn starch substrate DQTM (labeled with the fluorescent dye BODIPY® FL). The fluorescence of the hydrolysate was read at 37 °C in a microplate reader at 485 nm and 535 nm for excitation and emission, respectively. […] The inhibitory potential of the analytes towards α-amylase was expressed as a half inhibitory concentration (IC50), calculated from concentration-inhibition curves.

[1] = tested on: AGEs formation (protein glycation, fructose-BSA); experiment: inhibition of AGEs formation, fructose-bovine serum albumin (BSA) test system; details: mean ± SD (n = 3)
Method: The impact of the extracts/fractions on protein glycation was evaluated in the fructose-bovine serum albumin (BSA) test system with aminoguanidine as a positive control according to the fluorimetric method of Starowicz and Zieliński, modified by Rutkowska et al.. The fluorescence was measured at 37 °C in a microplate reader at 355 nm and 420 nm for excitation and emission, respectively. The results were reported as half inhibitory concentration (IC50) values, estimated using concentration-inhibition curves.

NO^• scavenging = details: mean ± SD of three replicates
Method: (§1) The scavenging efficiency of P. spinosa fruit extracts/fractions towards various ROS (O2^•−, HO^•, H2O2, HOCl, and NO^•) was tested using appropriate fluorimetric and spectrophotometric methods as described previously. Ascorbic acid and Trolox® served as positive controls. The results were expressed as half scavenging concentration (SC50) values, estimated using concentration-scavenging curves.

HOCl scavenging = details: mean ± SD of three replicates
Method: as §1

O2^•− scavenging = details: mean ± SD of three replicates
Method: as §1

H2O2 scavenging = details: mean ± SD of three replicates
Method: as §1

HO^• scavenging = details: mean ± SD of three replicates
Method: as §1

human neutrophils = tested on: human neutrophils; parameters: method as in PMID 35630778; details: 50 μM; cited from earlier work
α-glucosidase = α-glucosidase inhibition assay (p-NPG hydrolysis, spectrophotometric); assay type: biochemical; details: mean ± SD (n = 3)
Method: The inhibition of α-glucosidase was evaluated according to the spectrophotometric method reported by Ma et al. with slight modifications. The enzyme activity measurement was based on the p-nitrophenyl-α-D-glucopyranoside (p-NPG) hydrolysis. In brief, 150 µL of a phosphate buffer (0.1 M, pH 6.9) solution of an extract or standard was mixed with the enzyme (0.43 U/mL, 50 µL) and pre-incubated for 15 min at 37 °C. Next, a 0.7 mM p-NPG solution in the buffer (50 µL) was added, and after 15 min of incubation, the reaction was stopped by adding Na2CO3 (0.2 M, 50 µL). Finally, the absorbance was read at 405 nm in a microplate reader. […] The inhibitory potential of the analytes towards α-glucosidase was expressed as a half inhibitory concentration (IC50), calculated from concentration-inhibition curves.

[2] = tested on: human plasma lipids (TBARS); experiment: lipid peroxidation (TBARS) in human plasma exposed to ONOO^−; details: 5 μg/mL, compared with the other standard polyphenols
Method: Therefore, to check the potential preventive effects of P. spinosa fruit extracts against oxidative and nitrative injury of biomolecules, an experimental model of human blood plasma exposed to oxidative stress induced by ONOO^− (100–150 μM; achievable locally in vivo, e.g., in inflamed blood vessels) was applied. The process was monitored by measuring the oxidative stress biomarkers, including the products of protein nitration (3-nitrotyrosine, 3-NT), lipid peroxidation (thiobarbituric acid reactive substances, TBARS), as well as the total antioxidant capacity of plasma (NEAC). The extracts and fractions from fresh sloes were selected for the study due to their high ability to inhibit glycolytic enzymes, potent anti-glycation activity, and significant ROS/RNS-scavenging properties. […] The influence on the levels of oxidative stress biomarkers in plasma was evaluated using the appropriate immunoenzymatic and spectrophotometric methods. […] The results were calculated using the standard curve of nitro-fibrinogen (3-NT-Fg) and expressed as 3-NT-Fg equivalents (nmol/mg of plasma proteins). The TBARS levels of plasma lipids were determined spectrophotometrically and calculated in nmol/mL of plasma. The impact on the NEAC value was measured using the FRAP assay, with the results calculated from the standard curve of ferrous sulphate and expressed in mM of Fe^2+ equivalents.

| α-Glucosidase IC50 (α-glucosidase) | α-Amylase IC50 (α-amylase) | Compound | pIC50 (α-amylase) | AGEs Formation IC50 [1] | Scavenging activity (SC50) NO^• (NO^• scavenging) | Scavenging activity (SC50) HOCl (HOCl scavenging) | Scavenging activity (SC50) O2^•− (O2^•− scavenging) | Scavenging activity (SC50) H2O2 (H2O2 scavenging) | Scavenging activity (SC50) HO^• (HO^• scavenging) | downregulation (reduction) of the ROS level in human neutrophils (human neutrophils) | activity of model polyphenol in the TBARS test [2] |
| --- | --- | --- | --- | --- | --- | --- | --- | --- | --- | --- | --- |
|  |  | O=C(/C=C/c1ccc(O)c(O)c1)O[C@@H]1C[C@](O)(C(=O)O)C[C@@H](O)[C@H]1O [Chlorogenic acid, 5-O-caffeoylquinic acid] | 3.64 | 7.07 ± 0.74 ^A µg/mL |  |  |  |  |  |  |  |
|  |  | N=C(N)NN [Aminoguanidine, aminoguanidine] |  | 78.89 ± 4.95 ^C µg/mL |  |  |  |  |  |  |  |
|  |  | O=c1c(O)c(-c2ccc(O)c(O)c2)oc2cc(O)cc(O)c12 [Quercetin, quercetin] |  |  | 0.48 ± 0.03 ^A µg/mL | 2.08 ± 0.14 ^A µg/mL | 7.89 ± 0.24 ^A µg/mL | 0.008 ± 0.001 ^A mg/mL | 0.05 ± 0.002 ^A mg/mL | 96% |  |
| ** (inactive up to 1000 µg/mL) |  | O=Cc1ccc(CO)o1 [5-Hydroxymethylfurfural (HMF), 5-hydroxymethylfurfural] |  |  | ** (inactive up to a concentration of 500 µg/mL) | ** (inactive up to a concentration of 500 µg/mL) | ** (inactive up to a concentration of 500 µg/mL) | *** (inactive up to 1500 µg/mL) | *** (inactive up to 1500 µg/mL) | 15% |  |
|  |  | Cc1c(C)c2c(c(C)c1O)CCC(C)(C(=O)O)O2 (stereo not shown) [Trolox] |  |  | 0.59 ± 0.02 ^A µg/mL | 21.49 ± 1.21 ^C µg/mL | 135.33 ± 5.59 ^F µg/mL | 0.020 ± 0.001 ^B mg/mL | 0.13 ± 0.003 ^B,C mg/mL |  |  |
| 635.13 ± 34.43 ^H µg/mL | 31.28 ± 1.66 ^B µg/mL | OC[C@H]1O[C@@H](Oc2cc3c(O)cc(O)cc3[o+]c2-c2ccc(O)c(O)c2)[C@H](O)[C@@H](O)[C@@H]1O [Cyanidin 3-O-glucoside, cyanidin 3-O-β-D-glucopyranoside] |  | 10.90 ± 0.85 ^A µg/mL | 1.40 ± 0.09 ^B µg/mL | 5.62 ± 0.11 ^A µg/mL | 10.11 ± 0.33 ^A µg/mL | 0.012 ± 0.001 ^A,B mg/mL | 0.17 ± 0.002 ^C mg/mL |  | especially active |
|  |  | O=C1O[C@H]([C@@H](O)CO)C(O)=C1O [Ascorbic acid, ascorbic acid] |  |  | 0.59 ± 0.04 ^A µg/mL | 6.32 ± 0.07 ^A µg/mL | 5.28 ± 0.25 ^A µg/mL | 0.014 ± 0.001 ^A,B mg/mL | 0.14 ± 0.005 ^B,C mg/mL |  |  |
| 209.64 ± 5.64 ^G µg/mL |  | O=c1c(O[C@@H]2O[C@H](CO)[C@@H](O)[C@H](O)[C@H]2O)c(-c2ccc(O)c(O)c2)oc2cc(O)cc(O)c12 [Quercetin 3-O-glucoside (isoquercitrin), quercetin 3-O-β-D-glucopyranoside] |  | 3.09 ± 0.17 ^A µg/mL |  |  |  |  |  |  |  |
